Source: BindingDB's records for patent WO2025051920 (Sanofi-Aventis Deutschland, 2025)
Bridge positions count the residues as written; N and C are the ends. Square brackets hold non-standard residues; d marks the D form. Peptide text beside a SMILES is read from it. ξ: configuration not given here. Trp(1-Me) = Cn1cc(C[C@H](N)C(=O)O)c2ccccc21; 2Nal = N[C@@H](Cc1ccc2ccccc2c1)C(=O)O; ξThr(3R) = C[C@@H](O)C(N)C(=O)O; ξH = NC(Cc1c[nH]cn1)C(=O)O; Thp = NC1(C(=O)O)CCOCC1; ξD = NC(CC(=O)O)C(=O)O; ξOrn = NCCCC(N)C(=O)O; Aib = CC(C)(N)C(=O)O; ξK = NCCCCC(N)C(=O)O

Molecular target: Interleukin-23 subunit alpha/receptor (UniProt Q5VWK5)
Sequence (Q9NPF7 whole entry): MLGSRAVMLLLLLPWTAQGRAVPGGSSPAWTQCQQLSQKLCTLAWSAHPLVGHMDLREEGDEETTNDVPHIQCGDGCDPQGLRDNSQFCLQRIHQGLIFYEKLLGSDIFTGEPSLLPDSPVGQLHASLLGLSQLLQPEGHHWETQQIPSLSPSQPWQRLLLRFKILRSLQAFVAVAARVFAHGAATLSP
Sequence (Q5VWK5 whole entry): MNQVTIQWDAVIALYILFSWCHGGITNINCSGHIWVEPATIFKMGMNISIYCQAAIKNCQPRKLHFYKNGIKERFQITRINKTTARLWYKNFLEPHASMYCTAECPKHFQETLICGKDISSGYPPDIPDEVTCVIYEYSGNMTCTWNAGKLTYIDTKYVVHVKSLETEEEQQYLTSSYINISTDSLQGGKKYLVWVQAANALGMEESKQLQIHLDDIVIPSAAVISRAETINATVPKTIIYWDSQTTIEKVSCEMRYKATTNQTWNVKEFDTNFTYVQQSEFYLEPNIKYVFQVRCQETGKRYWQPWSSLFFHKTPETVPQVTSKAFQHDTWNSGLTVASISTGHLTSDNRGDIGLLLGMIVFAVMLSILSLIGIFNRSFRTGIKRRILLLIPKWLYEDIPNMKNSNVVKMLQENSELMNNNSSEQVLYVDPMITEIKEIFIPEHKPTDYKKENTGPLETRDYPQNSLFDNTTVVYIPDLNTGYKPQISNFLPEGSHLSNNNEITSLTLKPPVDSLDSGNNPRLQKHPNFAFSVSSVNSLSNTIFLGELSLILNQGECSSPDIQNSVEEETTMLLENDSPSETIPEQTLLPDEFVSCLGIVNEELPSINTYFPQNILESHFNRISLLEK
Assay: ELISA assay for specific human IL-23R inhibitors
Description: A 384-well plate was coated with 50 µl/well of human IL-23 at a final concentration of […] and incubated overnight at 4°C. The wells were washed 3 times with […] wash buffer and blocked with […] blocking buffer for 60 minutes at room temperature and washed again. 20 µl of serially diluted test peptides was added to each well and subsequently 20 µl of recombinant human IL-23R-Fc chimera at final concentration of […]. The plate was incubated for 60 minutes at room temperature. After the wells were washed, bound IL-23R-Fc was detected with goat anti-hu- IgG 1 -HRP antibody. Signals were visualized with QuantaBlu Fluorogenic Peroxidase Substrate.

Compound	IC50 [nM]
COc1ccc(C[C@@H]2NC(=O)[C@H](C(C)C)NC(=O)[C@H](CCC(N)=O)NC(=O)[C@H](Cc3c[nH]c4ccccc34)NC(=O)[C@H]([C@@H](C)O)NC(=O)[C@H](CC(N)=O)NC(=O)[C@H](NC(C)=O)CCCCNC(=O)C[C@@H](C(=O)N[C@@H](CC(N)=O)C(=O)N[C@@H](CC(N)=O)C(=O)O)NC(=O)C(C)(C)NC(=O)[C@H](Cc3ccc4ccccc4c3)NC2=O)cc1 [WO2025051920, Example 31]	8.27
COc1ccc(C[C@@H]2NC(=O)C(C)(C)NC(=O)[C@H](CCC(N)=O)NC(=O)[C@H](Cc3c[nH]c4ccccc34)NC(=O)[C@H]([C@@H](C)O)NC(=O)[C@H](CC(N)=O)NC(=O)[C@H](NC(C)=O)CCCCNC(=O)C[C@@H](C(=O)N[C@@H](CC(N)=O)C(=O)N[C@@H](CC(N)=O)C(=O)O)NC(=O)C(C)(C)NC(=O)[C@H](Cc3ccc4ccccc4c3)NC2=O)cc1 [WO2025051920, Example 32]	2.68
CC(=O)N[C@H]1CC(=O)NCCCC(C(=O)N[C@@H](CC(N)=O)C(=O)N[C@@H](CC(N)=O)C(=O)O)NC(=O)C(C)(C)NC(=O)[C@H](Cc2ccc3ccccc3c2)NC(=O)[C@H](Cc2ccc(O)cc2)NC(=O)[C@H](CCCNC(=N)N)NC(=O)[C@H](CCC(N)=O)NC(=O)[C@H](Cc2cn(C)c3ccccc23)NC(=O)[C@H]([C@@H](C)O)NC(=O)[C@H](CC(N)=O)NC1=O (stereo not given in full) [WO2025051920, Example 33] (Ac-DNT[Trp(1-Me)]QRY[2Nal][Aib][ξOrn]NN-OH; lactam 1-10)	3.36
COc1ccc(C[C@@H]2NC(=O)[C@H](CCCNC(=N)N)NC(=O)[C@H](CCC(N)=O)NC(=O)[C@H](Cc3cn(C)c4ccccc34)NC(=O)[C@H]([C@@H](C)O)NC(=O)[C@H](CC(N)=O)NC(=O)[C@@H](NC(C)=O)CC(=O)NCCCC(C(=O)N[C@@H](CC(N)=O)C(=O)N[C@@H](CC(N)=O)C(=O)O)NC(=O)C(C)(C)NC(=O)[C@H](Cc3ccc4ccccc4c3)NC2=O)cc1 (stereo not given in full) [WO2025051920, Example 34] (Ac-DNT[Trp(1-Me)]QRY(Me)[2Nal][Aib][ξOrn]NN-OH; lactam 1-10)	2.16
COc1ccc(C[C@@H]2NC(=O)[C@H](CCCNC(=N)N)NC(=O)[C@H](CCC(N)=O)NC(=O)[C@H](Cc3cn(C)c4ccccc34)NC(=O)[C@H]([C@@H](C)O)NC(=O)[C@H](CC(N)=O)NC(=O)[C@@H](NC(C)=O)CCC(=O)NCCCC(C(=O)N[C@@H](CC(N)=O)C(=O)N[C@@H](CC(N)=O)C(=O)O)NC(=O)C(C)(C)NC(=O)[C@H](Cc3ccc4ccccc4c3)NC2=O)cc1 (stereo partly drawn) [WO2025051920, Example 35] (Ac-ENT[Trp(1-Me)]QRY(Me)[2Nal][Aib][ξOrn]NN-OH; lactam 1-10)	4.55
COc1ccc(C[C@@H]2NC(=O)[C@H](CCCNC(=N)N)NC(=O)[C@H](CCC(N)=O)NC(=O)[C@H](Cc3cn(C)c4ccccc34)NC(=O)[C@H]([C@@H](C)O)NC(=O)[C@H](CC(N)=O)NC(=O)[C@@H](NC(C)=O)CC(=O)NCCCC(C(=O)N[C@@H](CC(N)=O)C(=O)N[C@@H](CC(N)=O)C(=O)O)NC(=O)C(C)(C)NC(=O)[C@H](Cc3c[nH]c4ccccc34)NC2=O)cc1 (stereo not given in full) [WO2025051920, Example 36] (Ac-DNT[Trp(1-Me)]QRY(Me)W[Aib][ξOrn]NN-OH; lactam 1-10)	19.5
COc1ccc(C[C@@H]2NC(=O)[C@H](CCNC(=N)N)NC(=O)[C@H](CCC(N)=O)NC(=O)[C@H](Cc3c[nH]c4ccccc34)NC(=O)C([C@@H](C)O)NC(=O)[C@H](CC(N)=O)NC(=O)C(N)CCCCCNC(=O)CC[C@H](C(=O)N[C@@H](CC(N)=O)C(=O)N[C@@H](CC(N)=O)C(=O)O)NC(=O)C(C)(C)NC(=O)[C@H](Cc3ccc4ccccc4c3)NC2=O)cc1 (stereo not given in full) [WO2025051920, Example 40]	3.11
COc1ccc(C[C@@H]2NC(=O)[C@H](CCCNC(=N)N)NC(=O)[C@H](CCC(N)=O)NC(=O)[C@H](Cc3c[nH]c4ccccc34)NC(=O)C(Cc3c[nH]cn3)NC(=O)[C@H](CC(N)=O)NC(=O)C(NC(C)=O)CCCCNC(=O)CC(C(=O)N[C@@H](CC(N)=O)C(=O)N[C@@H](CC(N)=O)C(=O)O)NC(=O)C3(CCOCC3)NC(=O)[C@H](Cc3ccc4ccccc4c3)NC2=O)cc1 (stereo not given in full) [WO2025051920, Example 42] (Ac-[ξK]N[ξH]WQRY(Me)[2Nal][Thp][ξD]NN-OH; lactam 1-10)	18.1
COc1ccc(C[C@@H]2NC(=O)[C@H](C)NC(=O)[C@H](CCC(N)=O)NC(=O)[C@H](Cc3c[nH]c4ccccc34)NC(=O)C([C@@H](C)O)NC(=O)[C@H](CC(N)=O)NC(=O)C(N)CCCCCNC(=O)C[C@H](C(=O)N[C@@H](CC(N)=O)C(=O)N[C@@H](CC(N)=O)C(=O)O)NC(=O)C(C)(C)NC(=O)[C@H](Cc3ccc4ccccc4c3)NC2=O)cc1 (stereo not given in full) [WO2025051920, Example 43]	1.44
COc1ccc(C[C@@H]2NC(=O)[C@H](C)NC(=O)[C@H](CCC(N)=O)NC(=O)[C@H](Cc3c[nH]c4ccccc34)NC(=O)[C@H]([C@@H](C)O)NC(=O)[C@H](CC(N)=O)NC(=O)[C@H](NC(C)=O)CCCCNC(=O)C[C@@H](C(=O)N[C@@H](CC(N)=O)C(=O)N[C@@H](C)C(=O)O)NC(=O)C(C)(C)NC(=O)[C@H](Cc3ccc4ccccc4c3)NC2=O)cc1 [WO2025051920, Example 48]	2.06
COc1ccc(C[C@@H]2NC(=O)[C@H](C)NC(=O)[C@H](CCC(N)=O)NC(=O)[C@H](Cc3c[nH]c4ccccc34)NC(=O)[C@H]([C@@H](C)O)NC(=O)[C@H](CC(N)=O)NC(=O)[C@H](NC(C)=O)CCCCNC(=O)C[C@@H](C(=O)N[C@@H](C)C(=O)N[C@@H](CC(N)=O)C(=O)O)NC(=O)C(C)(C)NC(=O)[C@H](Cc3ccc4ccccc4c3)NC2=O)cc1 [WO2025051920, Example 49]	3.13
COc1ccc(C[C@@H]2NC(=O)[C@H](C)NC(=O)[C@H](CCC(N)=O)NC(=O)[C@H](Cc3c[nH]c4ccccc34)NC(=O)[C@H]([C@@H](C)O)NC(=O)[C@H](CC(N)=O)NC(=O)[C@H](NC(C)=O)CCCCNC(=O)C[C@@H](C(=O)N[C@@H](C)C(=O)N[C@@H](C)C(=O)O)NC(=O)C(C)(C)NC(=O)[C@H](Cc3ccc4ccccc4c3)NC2=O)cc1 [WO2025051920, Example 50]	8.29

Further lines, results first:

IC50 [nM]	Compound
5.63	COc1ccc(C[C@@H]2NC(=O)[C@H](CCCNC(=N)N)NC(=O)[C@H](CCC(N)=O)NC(=O)[C@H](Cc3c[nH]c4ccccc34)NC(=O)[C@H]([C@@H](C)O)NC(=O)[C@H](CC(N)=O)NC(=O)[C@H](NC(C)=O)CCCCNC(=O)C[C@@H](C(=O)N[C@@H](CC(N)=O)C(=O)N[C@@H](CC(N)=O)C(=O)O)NC(=O)[C@H](CCCNC(N)=O)NC(=O)[C@H](Cc3ccc4ccccc4c3)NC2=O)cc1 [WO2025051920, Example 29]
9.64	COc1ccc(C[C@@H]2NC(=O)[C@H](CCCNC(=N)N)NC(=O)[C@H](CCC(N)=O)NC(=O)[C@H](Cc3c[nH]c4ccccc34)NC(=O)[C@H]([C@@H](C)O)NC(=O)[C@H](CC(N)=O)NC(=O)[C@H](NC(C)=O)CCCCNC(=O)C[C@@H](C(=O)N[C@@H](CC(N)=O)C(=O)N[C@@H](CC(N)=O)C(=O)O)NC(=O)[C@H](CCC(N)=O)NC(=O)[C@H](Cc3ccc4ccccc4c3)NC2=O)cc1 [WO2025051920, Example 30]
3.57	COc1ccc(C[C@@H]2NC(=O)[C@H](CCCNC(=N)N)NC(=O)[C@H](CCC(N)=O)NC(=O)[C@H](Cc3cn(C)c4ccccc34)NC(=O)[C@H]([C@@H](C)O)NC(=O)[C@H](CC(N)=O)NC(=O)[C@@H](NC(C)=O)CC(=O)NCCCC(C(=O)N[C@@H](CC(N)=O)C(=O)N[C@@H](CC(N)=O)C(=O)O)NC(=O)[C@H](CC(C)C)NC(=O)[C@H](Cc3ccc4ccccc4c3)NC2=O)cc1 (stereo not given in full) [WO2025051920, Example 37] (Ac-DNT[Trp(1-Me)]QRY(Me)[2Nal]L[ξOrn]NN-OH; lactam 1-10)
1.46	COc1ccc(C[C@@H]2NC(=O)[C@H](CCNC(=N)N)NC(=O)[C@H](CCC(N)=O)NC(=O)[C@H](Cc3c[nH]c4ccccc34)NC(=O)[C@H]([C@@H](C)O)NC(=O)[C@H](CC(N)=O)NC(=O)[C@H](NC(C)=O)CCCCNC(=O)C[C@@H](C(=O)N[C@@H](CC(N)=O)C(=O)N[C@@H](CC(N)=O)C(=O)O)NC(=O)C(C)(C)NC(=O)[C@H](Cc3ccc4ccccc4c3)NC2=O)cc1 [WO2025051920, Example 39]
1.47	COc1ccc(C[C@@H]2NC(=O)[C@H](CCCNC(=N)N)NC(=O)[C@H](CCC(N)=O)NC(=O)[C@H](Cc3c[nH]c4ccccc34)NC(=O)C([C@@H](C)O)NC(=O)[C@H](CC(N)=O)NC(=O)C(NC(C)=O)CCCCNC(=O)CC(C(=O)N[C@@H](CC(N)=O)C(=O)N[C@@H](CC(N)=O)C(=O)O)NC(=O)C3(CCOCC3)NC(=O)[C@H](Cc3ccc4ccccc4c3)NC2=O)cc1 (stereo partly drawn) [WO2025051920, Example 41] (Ac-[ξK]N[ξThr(3R)]WQRY(Me)[2Nal][Thp][ξD]NN-OH; lactam 1-10)
0.96	COc1ccc(C[C@@H]2NC(=O)[C@H](C)NC(=O)[C@H](CCC(N)=O)NC(=O)[C@H](Cc3c[nH]c4ccccc34)NC(=O)[C@H]([C@@H](C)O)NC(=O)[C@H](CCCNC(=N)N)NC(=O)[C@H](NC(C)=O)CCCCNC(=O)C[C@@H](C(=O)N[C@@H](CC(N)=O)C(=O)N[C@@H](CC(N)=O)C(=O)O)NC(=O)C(C)(C)NC(=O)[C@H](Cc3ccc4ccccc4c3)NC2=O)cc1 [WO2025051920, Example 45]
1.38	COc1ccc(C[C@@H]2NC(=O)[C@H](C)NC(=O)[C@H](CCC(N)=O)NC(=O)[C@H](Cc3c[nH]c4ccccc34)NC(=O)[C@H](CCCNC(=N)N)NC(=O)[C@H](CC(N)=O)NC(=O)[C@H](NC(C)=O)CCCCNC(=O)C[C@@H](C(=O)N[C@@H](CC(N)=O)C(=O)N[C@@H](CC(N)=O)C(=O)O)NC(=O)C(C)(C)NC(=O)[C@H](Cc3ccc4ccccc4c3)NC2=O)cc1 [WO2025051920, Example 46]
1.34	COc1ccc(C[C@@H]2NC(=O)[C@H](C)NC(=O)[C@H](CCC(N)=O)NC(=O)[C@H](Cc3c[nH]c4ccccc34)NC(=O)[C@H]([C@@H](C)O)NC(=O)[C@H](CC(N)=O)NC(=O)[C@H](NC(C)=O)CCCCNC(=O)C[C@@H](C(=O)N[C@@H](CC(N)=O)C(=O)N[C@@H](CC(N)=O)C(=O)O)NC(=O)[C@H](CCCNC(=N)N)NC(=O)[C@H](Cc3ccc4ccccc4c3)NC2=O)cc1 [WO2025051920, Example 47]
